# Experimental data as given in patent US20140350081A1, “INSECT G-COUPLED RECEPTORS USEFUL AS TARGETS FOR INSECTICIDES AND COMPOUNDS AND REAGENTS IDENTIFIED USING THE SAME” (priority 2011, published 2014).
# Read-outs that look alike come from different tables or passages of the source.
# Legend:
# AaDOP2 [1] = molecular target: T1, AaDOP2 (Aedes aegypti, UniProt H6D5H2); test: AaDOP2 agonist screen against the LOPAC1280 library; type: cell-based
# AaDOP2 [2] = molecular target: T1, AaDOP2; test: LOPAC1280 antagonist screen in HEK-CRELuc-Aadop2 cells; type: cell-based
# AaDOP2 [3] = molecular target: T1, AaDOP2; test: HTRF cAMP accumulation concentration response assay (Cisbio Dynamic 2); type: cell-based
# Isdop2 = Isdop2 (Ixodes scapularis, UniProt A0ACM8DGL0); test: cell-based; settings: for inhibition at 10 µM: read-out: % Inhibition (of response to dopamine), Isdop2 screen
# Ae. aegypti L3 larvae = test: whole plant or invertebrate; settings: Aedes aegypti
# [4] = 10 μM compound, percent of response to 1 μM dihydrexidine
# [5] = 10 μM compound, 300 nM dopamine, quadruplicate
# [6] = AaDOP2 expressing cells in the presence of dopamine, No Inhibition = <10% inhibition at 3 μM test compound, read-out: IC50 ± S.E.M. (nM), HTRF cAMP assay
# [7] = 24 h, read-out: Toxicity to Aedes aegypti larvae (mortality) 24 hours
# [8] = 48 h, read-out: Toxicity to Aedes aegypti larvae (mortality) 48 hours
# [9] = 72 h, read-out: Toxicity to Aedes aegypti larvae (mortality) 72 hours
# T1 sequence (H6D5H2 entry or part of it): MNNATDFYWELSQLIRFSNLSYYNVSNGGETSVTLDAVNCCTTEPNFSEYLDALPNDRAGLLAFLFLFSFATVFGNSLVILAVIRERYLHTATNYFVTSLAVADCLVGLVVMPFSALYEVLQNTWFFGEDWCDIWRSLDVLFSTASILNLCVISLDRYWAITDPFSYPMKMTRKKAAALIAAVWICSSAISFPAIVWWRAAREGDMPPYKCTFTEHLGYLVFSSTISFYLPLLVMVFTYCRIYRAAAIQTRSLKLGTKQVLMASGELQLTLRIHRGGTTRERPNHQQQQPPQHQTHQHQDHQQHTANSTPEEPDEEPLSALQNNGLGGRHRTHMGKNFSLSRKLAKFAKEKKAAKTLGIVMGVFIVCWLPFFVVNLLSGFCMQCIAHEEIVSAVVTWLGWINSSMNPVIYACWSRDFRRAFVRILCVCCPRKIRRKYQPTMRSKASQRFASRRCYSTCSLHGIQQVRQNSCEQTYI
# Sequence of Isdop2 (A0ACM8DGL0 entry or part of it): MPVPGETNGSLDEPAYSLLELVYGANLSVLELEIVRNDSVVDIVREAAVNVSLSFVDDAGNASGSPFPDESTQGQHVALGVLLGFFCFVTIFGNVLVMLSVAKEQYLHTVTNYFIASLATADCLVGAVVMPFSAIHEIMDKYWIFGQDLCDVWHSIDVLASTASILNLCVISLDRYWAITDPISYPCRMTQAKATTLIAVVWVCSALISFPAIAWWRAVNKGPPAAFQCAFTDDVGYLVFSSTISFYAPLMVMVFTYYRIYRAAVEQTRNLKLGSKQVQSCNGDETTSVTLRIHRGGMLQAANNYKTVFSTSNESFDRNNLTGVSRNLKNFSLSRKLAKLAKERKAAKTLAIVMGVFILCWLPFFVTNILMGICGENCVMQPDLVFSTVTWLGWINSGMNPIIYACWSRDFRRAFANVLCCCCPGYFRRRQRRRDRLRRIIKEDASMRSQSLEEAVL
compound,measurement,setting,value
C=CCN1CCc2c(cc(O)c(O)c2Cl)C(c2ccccc2)C1 (racemic) [(±)-Chloro-APB],% of DHX,AaDOP2 [1]; [4],105%
CNC[C@H](O)c1ccc(O)c(O)c1 (racemic) [(±)-Epinephrine],% of DHX,AaDOP2 [1],81%
Nn1nnc2ccccc21 [1-Aminobenzotriazole],% of DHX,AaDOP2 [1]; [4],75%
"NC1CCc2cc(O)c(O)cc2C1 (centres unmarked) [6,7-ADTN]",% of DHX,AaDOP2 [1]; [4],131%
CC1=C[C@@H]2c3cccc4[nH]cc(c34)C[C@H]2N(C)C1 [Agroclavine],% of DHX,AaDOP2 [1]; [4],93%
C[C@H]1C[C@H]2[C@@H]3CCC4=CC(=O)C=C[C@]4(C)[C@@]3(F)[C@@H](O)C[C@]2(C)[C@@]1(O)C(=O)CO [Betamethasone],% of DHX,AaDOP2 [1]; [4],101%
Nc1ncnc2c1ncn2[C@@H]1O[C@H](C(=O)NC2CC2)[C@@H](O)[C@H]1O [CPCA],% of DHX,AaDOP2 [1]; [4],34%
CCCN(CCC)CCc1ccc(O)c(O)c1 [Dipropyldopamine],% of DHX,AaDOP2 [1]; [4],38%
CCN(c1nc(N)c(C(=O)NC(=N)N)nc1Cl)C(C)C [EIPA],% of DHX,AaDOP2 [1]; [4],73%
Oc1ccc(C2CNCCc3c2cc(O)c(O)c3Cl)cc1 (centres unmarked) [Fenoldopam],% of DHX,AaDOP2 [1]; [4],31%
C=C[C@@]1(C)CC(=O)[C@]2(O)[C@@]3(C)[C@@H](O)CCC(C)(C)[C@@H]3[C@H](O)[C@H](OC(C)=O)[C@@]2(C)O1 [Forskolin],% of DHX,AaDOP2 [1]; [4],34%
"CN(C)CCCN1c2ccccc2CCc2ccccc21 [Imipramine, 3-(10,11-dihydro-5H-dibenzo[b,f]azepin-5-yl)-N,N-dimethylpropan-1-amine]",% of the SCH23390 effect,AaDOP2 [2]; [5],96%
same,% inhibition of DA activity (Aedes cell-based assay screen),AaDOP2 [2]; LOPAC1280 screen hits,96%
same,IC50,AaDOP2 [3]; [6],360 ± 30 nM
same,inhibition at 10 µM,Isdop2,70%
same,mortality at 400 µM,Ae. aegypti L3 larvae; [7],53%
same,mortality at 400 µM,Ae. aegypti L3 larvae; [8],63%
same,mortality at 400 µM,Ae. aegypti L3 larvae; [9],80%
"CN1CCC(=C2c3ccccc3CC(=O)c3sccc32)CC1 [Ketotifen, 4-(1-methylpiperidin-4-ylidene)-4,9-dihydro-10H-benzo[4,5]cyclohepta[1,2-b]thiophen-10-one]",% of the SCH23390 effect,AaDOP2 [2]; [5],96%
same,% inhibition of DA activity (Aedes cell-based assay screen),AaDOP2 [2]; LOPAC1280 screen hits,96%
same,IC50,AaDOP2 [3]; [6],750 ± 180 nM
"CC1(C)C(=O)N(CCN2CCC(C(=O)c3ccc(F)cc3)CC2)c2ccccc21.Cl [LY310762, 1-[2-[4-(4-fluorobenzoyl)piperidin-1-yl]ethyl]-3,3-dimethylindol-2-one]",% of the SCH23390 effect,AaDOP2 [2],81%
same,% inhibition of DA activity (Aedes cell-based assay screen),AaDOP2 [2]; LOPAC1280 screen hits,81%
same,inhibition at 10 µM,Isdop2,72%
same,mortality at 400 µM,"Ae. aegypti L3 larvae; 0.5 h, read-out: percent mortality 0.5 hr, 400 uM, L3 larvae, value for this scoring time",0%
same,mortality at 400 µM,"Ae. aegypti L3 larvae; 1 h, read-out: percent mortality 1 hr, 400 uM, L3 larvae, per scoring time",0%
same,mortality at 400 µM,"Ae. aegypti L3 larvae; 2 h, read-out: percent mortality 2 hr, 400 uM, L3 larvae, per scoring time",0%
same,mortality at 400 µM,"Ae. aegypti L3 larvae; 3 h, read-out: percent mortality 3 hr, 400 uM, L3 larvae, per scoring time",0%
same,mortality at 400 µM,"Ae. aegypti L3 larvae; 4 h, read-out: percent mortality 4 hr, 400 uM, L3 larvae, per scoring time",0%
same,mortality at 400 µM,"Ae. aegypti L3 larvae; 24 h, read-out: Toxicity to Aedes aegypti larvae (mortality) 24 hours, 400 μM, L3 larvae, three independent experiments",0%
same,mortality at 400 µM,"Ae. aegypti L3 larvae; 24 h, read-out: percent mortality 24 hr, 400 uM, L3 larvae, per scoring time",0%
same,mortality at 400 µM,"Ae. aegypti L3 larvae; 48 h, read-out: Toxicity to Aedes aegypti larvae (mortality) 48 hours, 400 μM, L3 larvae, three independent experiments",3%
same,mortality at 400 µM,"Ae. aegypti L3 larvae; 48 h, read-out: percent mortality 48 hr, 400 uM, L3 larvae, per scoring time",10%
same,mortality at 400 µM,"Ae. aegypti L3 larvae; 72 h, read-out: Cumulative % Mortality (72 hrs), 400 uM, L3 larvae",10%
same,mortality at 400 µM,"Ae. aegypti L3 larvae; 72 h, read-out: Toxicity to Aedes aegypti larvae (mortality) 72 hours, 400 μM, L3 larvae, three independent experiments",3%
same,mortality at 400 µM,"Ae. aegypti L3 larvae; 72 h, read-out: percent mortality 72 hr, 400 uM, L3 larvae, per scoring time",0%
same,mortality at 400 µM,"Ae. aegypti L3 larvae; […], read-out: percent mortality […], 400 uM, L3 larvae, per scoring time",0%
CC[C@@H](CO)NC(=O)[C@@H]1C=C2c3cccc4[nH]cc(c34)C[C@H]2N(C)C1 [Methylergonovine],% of DHX,AaDOP2 [1]; [4],47%
CCNC(=O)[C@H]1O[C@@H](n2cnc3c(NCc4ccccc4)ncnc32)[C@@H](O)C1O (some centres unmarked) [N6-Benzyl-NECA],% of DHX,AaDOP2 [1]; [4],36%
CNCCc1ccc(O)c(O)c1 [N-Methyldopamine],% of DHX,AaDOP2 [1]; [4],107%
CCCCCCCC/C=C\CCCCCCCC(=O)NCCc1ccc(O)c(O)c1 [N-Oleoyldopamine],% of DHX,AaDOP2 [1]; [4],38%
"CNCCC=C1c2ccccc2CCc2ccccc21 [Nortriptyline, 3-(10,11-dihydro-5H-dibenzo[a,d]cyclohepten-5-ylidene)-N-methyl-1-propanamine]",% of the SCH23390 effect,AaDOP2 [2]; [5],96%
same,% inhibition of DA activity (Aedes cell-based assay screen),AaDOP2 [2]; LOPAC1280 screen hits,96%
same,IC50,"AaDOP2 [3]; IC50 ± S.E.M. (nM), HTRF cAMP assay",140 ± 50 nM
same,inhibition at 10 µM,Isdop2,79%
same,mortality at 400 µM,Ae. aegypti L3 larvae; [7],43%
same,mortality at 400 µM,Ae. aegypti L3 larvae; [8],63%
same,mortality at 400 µM,Ae. aegypti L3 larvae; [9],73%
"OCCN1CCN(CCCN2c3ccccc3Sc3ccc(Cl)cc32)CC1 [Perphenazine, 2-[4-[3-(2-chloro-10H-phenothiazin-10-yl)propyl]piperazin-1-yl]ethanol]",% of the SCH23390 effect,AaDOP2 [2]; [5],95%
same,% inhibition of DA activity (Aedes cell-based assay screen),AaDOP2 [2]; LOPAC1280 screen hits,95%
same,IC50,"AaDOP2 [3]; Avg IC50 (μM), in vitro Concentration Response Curve assay, n = 2, relative to control antagonist Amitriptyline",101 nM
same,inhibition at 10 µM,Isdop2,76%
"CN(C)CCCN1c2ccccc2Sc2ccccc21 [Promazine, N,N-dimethyl-3-(10H-phenothiazin-10-yl)-propan-1-amine]",% of the SCH23390 effect,AaDOP2 [2],88%
same,% inhibition of DA activity (Aedes cell-based assay screen),AaDOP2 [2]; LOPAC1280 screen hits,88%
same,inhibition at 10 µM,Isdop2,87%
"CCC(=O)c1ccc2c(c1)N(CCCN(C)C)c1ccccc1S2 [Propionylpromazine, 1-[10-[3-(dimethylamino)propyl]phenothiazin-2-yl]propan-1-one]",% of the SCH23390 effect,AaDOP2 [2]; [5],85%
same,% inhibition of DA activity (Aedes cell-based assay screen),AaDOP2 [2]; LOPAC1280 screen hits,85%
same,inhibition at 10 µM,Isdop2,94%
"CNCCCC1c2ccccc2C=Cc2ccccc21 [Protriptyline, 3-(5H-dibenzo[a,d][7]annulen-5-yl)-N-methylpropan-1-amine]",% inhibition of DA activity (Aedes cell-based assay screen),AaDOP2 [2],82%
same,% of the SCH23390 effect,AaDOP2 [2],82%
same,IC50,"AaDOP2 [3]; read-out: IC50 ± S.E.M. (nM), HTRF cAMP assay",600 ± 250 nM
same,inhibition at 10 µM,Isdop2,75%
same,mortality at 400 µM,Ae. aegypti L3 larvae; [7],37%
same,mortality at 400 µM,Ae. aegypti L3 larvae; [8],43%
same,mortality at 400 µM,Ae. aegypti L3 larvae; [9],53%
CC(C)[C@H](CO)Nc1nc(Nc2cccc(Cl)c2)c2ncn(C(C)C)c2n1 [Purvalanol A],% of the SCH23390 effect,AaDOP2 [2]; [5],93%
same,"% Inhibition (of response to dopamine), Isdop2 screen",Isdop2,84%
C=CCN1CCc2cccc3c2[C@H]1Cc1ccc(O)c(O)c1-3 [R(−)-N-Allyl-NPA],% of DHX,AaDOP2 [1]; [4],56%
"Cc1nc2sccn2c(=O)c1CCN1CCC(=C(c2ccc(F)cc2)c2ccc(F)cc2)CC1 [Ritanserin, 6-[2-[4-[bis(4-fluorophenyl)methylidene]piperidin-1-yl]ethyl]-7-methyl-[1,3]thiazolo[2,3-b]pyrimidin-5-one]",% of the SCH23390 effect,AaDOP2 [2]; [5],83%
same,% inhibition of DA activity (Aedes cell-based assay screen),AaDOP2 [2]; LOPAC1280 screen hits,83%
same,inhibition at 10 µM,Isdop2,77%
"CN1CCN(CC/C=C2/c3ccccc3Sc3ccc(S(=O)(=O)N(C)C)cc32)CC1 [Thiothixene, (9Z)-N,N-dimethyl-9-[3-(4-methylpiperazin-1-yl)propylidene]-9H-thioxanthene-2-sulfonamide]",% of the SCH23390 effect,AaDOP2 [2],86%
same,% inhibition of DA activity (Aedes cell-based assay screen),AaDOP2 [2]; LOPAC1280 screen hits,86%
same,inhibition at 10 µM,Isdop2,87%
"CN(C)CCCN1c2ccccc2Sc2ccc(C(F)(F)F)cc21 [Triflupromazine, N,N-dimethyl-3-[2-(trifluoromethyl)-10H-phenothiazin-10-yl]propan-1-amine]",% of the SCH23390 effect,AaDOP2 [2],88%
same,% inhibition of DA activity (Aedes cell-based assay screen),AaDOP2 [2]; LOPAC1280 screen hits,88%
same,inhibition at 10 µM,Isdop2,83%
